Converted amounts (≈) assume the structure as drawn. Where a SMILES comes first, the peptide text is derived from it.
Settings: not given

Point of comparison: `CC(C)CC(=O)Oc1ccccc1`, logP 3.18. Against it:
- O=C1CCC(c2cccnc2)N1 (centres undefined) — lower, -0.3
- COc1cccc(C=O)c1 — lower, 1.71
- Cc1cc(Cc2cc(Cl)ccc2Cl)c(Cl)cc1Cl — higher, 7.53
- Cc1cc(Cl)ccc1OC(C)C(=O)O (centres undefined) — within 0.2 log units, 3.13
- O=C1c2ccccc2C(=O)C1C(=O)C(c1ccccc1)c1ccccc1 — higher, 4.27
- C=CCSCC1Nc2cc(Cl)c(S(N)(=O)=O)cc2S(=O)(=O)N1 (centres undefined) — lower, 1.17
- CC(=O)OCN1C(=O)NC(c2ccccc2)(c2ccccc2)C1=O — lower, 2.23
- O=C(OCc1ccccc1)c1ccc(O)cc1 — higher, 3.56
- CCC(C(=O)Oc1ccccc1)C(C)C (centres undefined) — higher, 4.2
- OCC(CO)(CO)CO — lower, -1.69
- O=C(O)CNC(=O)c1ccc(I)cc1 — lower, 1.94
- NCCc1nccs1 — lower, 0.16
- O=C(O)CNC(=O)c1ccccc1I — lower, 0.97
- CCC(=O)OCC1OC(n2cnc3c(OC)ncnc32)C(OC(=O)CC)C1OC(=O)CC (centres undefined) — lower, 2.75
- CC(=O)N[C@@H](C)C(=O)N[C@H](C(N)=O)C(C)C (Ac-Ala-Val-NH2) — lower, -1.13
- CCC1(C2=CCCCCC2)C(=O)NC(=O)N(C)C1=O (centres undefined) — lower, 2.82
- Sc1nc2ccccc2s1 — lower, 2.42
- CN1CCN(c2c(F)cc3c(=O)c(C(=O)O)cn(CCF)c3c2F)CC1 — lower, 0.24
- CCCCOc1ccc([N+](=O)[O-])cc1NC(C)=O — lower, 2.26
- CCOP(=O)(CN(CCO)CCO)OCC — lower, -0.72
- CCCOC(=O)NCCCN(C)C — lower, 1.12
- CC(C)CN=C=S — lower, 2.82
- O=C(CCl)N1CCOCC1 — lower, -0.6
- CCc1ccc(C=[N+]([O-])C(C)(C)C)cc1 — lower, 2.19
- O=P(O)(O)CN(CCCCCCN(CP(=O)(O)O)CP(=O)(O)O)CP(=O)(O)O — lower, -4.43
- CN(C(=O)C(Cl)Cl)c1ccc(OC(=O)c2ccccc2)cc1 — lower, 2.56
- Cc1ccc(Br)c(C)c1NC(=O)CN(CC(=O)O)CC(=O)O — lower, -0.28
- COCCOCCOC — lower, -0.36

`CCC(C)O` (centres undefined) gave a log10 OH rate constant (cm³/molecule/s) of -11.

With `O=P(O)(O)CN(CCCCCCN(CP(=O)(O)O)CP(=O)(O)O)CP(=O)(O)O` the solubility was 30.5 mM (≈ 15 mg/mL).

Same assay, conditions: 20 °C

Point of comparison: `Nc1c(Cl)cc([N+](=O)[O-])cc1Cl`, solubility 0.0338 mM (≈ 0.007 mg/mL). Against it:
- COCCO[Si](CCCl)(OCCOC)OCCOC — 2300-fold higher, 78.9 mM (≈ 25 mg/mL)
- Clc1cccc2c1Oc1c(Cl)c(Cl)c(Cl)c(Cl)c1O2 — far lower, 3.37e-07 mM (≈ 1.2e-07 mg/mL)

Same assay, conditions: 23 °C

Point of comparison: `CCC(C#N)CC#N` (centres undefined), solubility 203 mM (≈ 22 mg/mL). Against it:
- C[Si]1(C)O[Si](C)(C)O[Si](C)(C)O[Si](C)(C)O[Si](C)(C)O[Si](C)(C)O1 — far lower, 1.15e-05 mM (≈ 5.1e-06 mg/mL)

Same assay, conditions: 23.0 °C

Point of comparison: `CC1=CCC(=O)O1`, log10 OH rate constant (cm³/molecule/s) -10.2. Against it:
- C=C(F)F — lower, -11.7
- c1ccc2c(c1)ccc1ccccc12 — lower, -10.9

Same assay, conditions: 24 °C

Point of comparison: `Sc1nc2ccccc2s1`, solubility 0.658 mM (≈ 0.11 mg/mL). Against it:
- CCCCN(CCCC)N=O — 12-fold higher, 8.03 mM (≈ 1.27 mg/mL)

Same assay, conditions: 24.0 °C

Point of comparison: `CCOCCC(=O)OCC`, log10 OH rate constant (cm³/molecule/s) -10.6. Against it:
- Clc1cccc(-c2cccc(Cl)c2)c1 — lower, -11.4
- C[Si](C)(C)O[Si](C)(C)C — lower, -11.9

Same assay, conditions: 25 °C

Point of comparison: `ClCC(Cl)CCl`, solubility 11.9 mM (≈ 1.75 mg/mL). Against it:
- CCOC(=O)COc1cc(Cl)c(Cl)cc1Cl — 840-fold lower, 0.0141 mM (≈ 0.00401 mg/mL)
- N[C@@H]1[C@H]2CN(c3nc4c(cc3F)c(=O)c(C(=O)O)cn4-c3ccc(F)cc3F)C[C@@H]12 — 400-fold lower, 0.0295 mM (≈ 0.0123 mg/mL)
- c1ccc2nc3ccccc3cc2c1 — 56-fold lower, 0.214 mM (≈ 0.0384 mg/mL)
- CCCCCCCCCCCCCCCCCCCC — far lower, 6.72e-06 mM (≈ 1.9e-06 mg/mL)
- Clc1ccc(Cl)c(-c2ccccc2Cl)c1 — 7700-fold lower, 0.00155 mM (≈ 0.0004 mg/mL)
- Nc1nc[nH]n1 — 280-fold higher, 3330 mM (≈ 280 mg/mL)
- O=C(O)C(Br)Br — 810-fold higher, 9690 mM (≈ 2110 mg/mL)
- COc1c(O)c(Cl)c(Cl)c(Cl)c1Cl — 740-fold lower, 0.016 mM (≈ 0.0042 mg/mL)
- ClC1=C(Cl)C2(Cl)C3CCC4C(CCC3C1(Cl)C2(Cl)Cl)C1(Cl)C(Cl)=C(Cl)C4(Cl)C1(Cl)Cl (centres undefined) — far lower, 6.73e-11 mM (≈ 4.4e-11 mg/mL)
- O=[N+]([O-])c1ccc(F)cc1O — within 1.5-fold, 8.91 mM (≈ 1.4 mg/mL)
- CC(Cl)C(Cl)Cl (centres undefined) — within 1.5-fold, 12.9 mM (≈ 1.9 mg/mL)
- O=C(O)C(Br)(Br)Br — 57-fold higher, 674 mM (≈ 200 mg/mL)
- O=C1c2ccccc2C(=O)c2c(O)cccc21 — 310-fold lower, 0.0379 mM (≈ 0.0085 mg/mL)
- ClC1=C(Cl)C2(Cl)C3C(Cl)C(Cl)CC3C1(Cl)C2(Cl)Cl (centres undefined) — 87000-fold lower, 0.000137 mM (≈ 5.6e-05 mg/mL)
- C[Si](C)(C)O[Si](C)(C)C — 2100-fold lower, 0.00573 mM (≈ 0.00093 mg/mL)
- CCOC(=O)N(C)N=O — 24-fold higher, 280 mM (≈ 37 mg/mL)
- O=C1c2ccccc2C(=O)c2c(O)c(O)cc(O)c21 — 480-fold lower, 0.025 mM (≈ 0.0064 mg/mL)
- CCOC(C)=O — 76-fold higher, 908 mM (≈ 80 mg/mL)
- O=c1n(Cl)c(=O)n(Cl)c(=O)n1Cl — 4.3-fold higher, 51.6 mM (≈ 12 mg/mL)
- Cc1ccccc1C — 7.1-fold lower, 1.68 mM (≈ 0.178 mg/mL)

Same assay, conditions: 25.0 °C

Point of comparison: `CCNC(=O)OCC`, log10 OH rate constant (cm³/molecule/s) -10.8. Against it:
- CC(C)[N+](=O)[O-] — lower, -12.6
- c1cc2c3c(cccc3c1)CC2 — higher, -10.2
- CNC(=O)OC — lower, -11.4
- COC(=O)CCC(=O)OC — lower, -11.9
- NCC(F)(F)F — lower, -12
- FC1(F)OC(F)(F)C1(F)F — lower, < -15.7
- C=C(C)C(CC=O)CCC(C)=O (centres undefined) — higher, -9.96
- FC(F)OC(F)(F)C(F)Cl (centres undefined) — lower, -13.9
- CC(=O)C=CC=O — higher, -10.3
- CC/C=C\CCOC(C)=O — higher, -10.1
- Cc1ccccc1C — within 0.2 log units, -10.9

Same assay, conditions: 27.0 °C

Point of comparison: `Oc1ccccc1O`, log10 OH rate constant (cm³/molecule/s) -9.98. Against it:
- CC(=O)N(C)C — lower, -10.9

From the OPERA property sets (Mansouri et al. 2018)
